Literature values, collected in patent publication US20220023301A1, “METHODS OF TREATING AUTOIMMUNE DISEASES WITH SMALL MOLECULE NF-kB INHIBITORS” (ImmuneTarget, Inc., priority 2020, published 2022).

Test system: cuprizone induced neuroinflammation mouse model

CC(C)[C@]12O[C@H]1[C@@H]1O[C@]13[C@]1(O[C@H]1C[C@H]1C4=C(CC[C@@]13C)C(=O)OC4)[C@@H]2O [Triptolide]
motor function and motor coordination compared to control group (0.125 mg/kg administered intraperitoneally daily): improves motor function and motor coordination | Bax/Bcl-2 ratio (0.125 mg/kg dose): reduce Bax/Bcl-2 ratio | behavioral deficits (0.125 mg/kg dose): improve behavioral deficits | number of OLGs precursor cells (NG-2+/O4+) (0.125 mg/kg dose): raise the number of OLGs precursor cells
